This is an account of results in patent US4822790A, “1-Sulfo-2-oxoazetidine derivatives and their production” (Takeda Chemical Industries, Ltd., priority 1980, dated 1989).

Assay type in all cases: cell-based
Assay [1] deals with Klebsiella pneumoniae TN 1711. Briefly: MIC by agar dilution method (Experiment C), Klebsiella pneumoniae TN 1711. The note with it: TN1711, Trypticase Soy agar, about 10^8 CFU/ml, 37° C. overnight, read-out: Minimal inhibitory concentration (MIC). As to the method:
(§1) The tables given below set forth the minimal inhibitory concentrations (MIC) of some typical compounds [I]C as obtained in the working examples. The minimal inhibitory concentrations of the tested compounds are determined by the agar dilution method. Namely, 1.0 ml. of aqueous solution of the tested compounds diluted by serial dilutions is poured into test petri dish. Subsequently 9.0 ml. of Trypticase Soy agar is poured into the dish and mixed. On the mixed agar plate, one loopful of bacterial suspension (about 10^8 CFU/ml.) of test microorganism is streaked. After the incubation at 37° C. overnight, the lowest concentration of the tested compounds which cause apparently complete inhibition of growth of the test microorganism is taken to be minimal inhibitory concentration. (2) Klebsiella pneumoniae TN 1711
In general terms: Agar dilution tests growth on a series of plates holding different concentrations.

Assay [2] relates to Enterobacter cloacae IFO 12937. Briefly: MIC by agar dilution method (Experiment C), Enterobacter cloacae IFO 12937. The settings on record: IFO12937, Trypticase Soy agar, about 10^8 CFU/ml, 37° C. overnight, read-out: Minimal inhibitory concentration (MIC). As to the method: as §1, with “(1) Enterobacter cloacae IFO 12937” for “(2) Klebsiella pneumoniae TN 1711”
In assay [3] the test system is Escherichia coli 0-111. The assay can be described thus: Antibacterial test (MIC), Escherichia coli 0-111. The note with it: Escherichia coli, 0111; medium TSA; read-out: Minimum inhibitory concentration (MIC). From the text: (§2) The following is media and compounds employed in the antibacterial test.
(§3) TSA=Trypticase soy agar [Baltimore Biologicals (U.S.A.)]
(§4) B-TSA=Blood trypticase soy agar

The subject of assay [4] is Escherichia coli T-7. Briefly: Antibacterial test (MIC), Escherichia coli T-7. The note with it: Escherichia coli, T7; medium TSA; read-out: Minimum inhibitory concentration (MIC).
Source text: as §2, §3, §4

Assay [5] deals with Staphylococcus aureus 308A-1. Briefly: Antibacterial test (MIC), Staphylococcus aureus 308A-1. The note with it: Staphylococcus aureus, 308A1, read-out: Minimum inhibitory concentration (MIC).
Source text: as §2, §3, §4

For assay [6], the system named is Streptococcus pneumoniae Type I. The assay can be described thus: Antibacterial test (MIC), Streptococcus pneumoniae Type I. The note with it: Streptococcus pneumoniae, read-out: Minimum inhibitory concentration (MIC).
Source text: as §2, §3, §4

Assay [7] deals with Streptococcus pyogenes E-14. The assay can be described thus: Antibacterial test (MIC), Streptococcus pyogenes E-14. The settings on record: Streptococcus pyogenes, E14, read-out: Minimum inhibitory concentration (MIC).
Source text: as §2, §3, §4

In assay [8] the test system is Pseudomonas aeruginosa IFO 3455. The assay can be described thus: Antibacterial test (MIC), Pseudomonas aeruginosa IFO 3455. The settings on record: Pseudomonas aeruginosa, IFO3455, read-out: Minimum inhibitory concentration (MIC).
Source text: as §2, §3, §4

Assay [9] concerns Streptococcus mitis America. Briefly: Antibacterial test (MIC), Streptococcus mitis America. The note with it: Streptococcus mitis, read-out: Minimum inhibitory concentration (MIC).
Source text: as §2, §3, §4

Converted amounts (≈) assume the structure as drawn. Structures can show the parent of a compound that is named as a salt.

On to `COC(=O)[C@H]1[C@@H](NC(=O)/C(=N\OCC(=O)O)c2csc(N)n2)C(=O)N1S(=O)(=O)O` (relative stereo) [Example No. 65C, cis-3-[2-(2-amino-4-thiazolyl)-2-carboxylmethyloxyiminoacetamido]-4-methoxycarbonyl-2-oxoazetidine-1-sulfonic acid disodium salt], for which the MIC came to 0.2 µg/mL in assay [1] and 6.25 µg/mL in assay [2].
For `COC(=O)[C@H]1[C@@H](NC(=O)/C(=N\OC(C)(C)C(=O)O)c2csc(N)n2)C(=O)N1S(=O)(=O)O` (relative stereo) [Example No. 68C, cis-3-[2-(2-amino-4-thiazolyl)-2-(1-methyl-1-carboxyethyloxyimino)acetamido]-4-methoxycarbonyl-2-oxoazetidine-1-sulfonic acid disodium salt], the MIC in [1] was 0.78 µg/mL; in [2], 3.13 µg/mL.
As for `C=CCO/N=C(\C(=O)N[C@H]1C(=O)N(S(=O)(=O)O)[C@H]1C(=O)OC)c1csc(N)n1` (relative stereo) [Example No. 72C, sodium cis-3-[2-(2-amino-4-thiazolyl)-2-allyloxyiminoacetamido]-4-methoxycarbonyl-2-oxoazetidine-1-sulfonate], the MIC in assay [2] is 1.56 µg/mL.
In the case of `CC(C)(O/N=C(\C(=O)N[C@H]1C(=O)N(S(=O)(=O)O)[C@H]1C(N)=O)c1csc(N)n1)C(=O)O` (relative stereo) [Example No. 133C, cis-3-[2-(2-amino-4-thiazolyl)-2-(1-methyl-1-carboxyethyloxyimino)acetamido]-4-carbamoyl-2-oxoazetidine-1-sulfonic acid (syn-isomer)], the MIC amounted to 0.39 µg/mL (≈ 0.84 µM) in assay [1] and 1.56 µg/mL (≈ 3.36 µM) in [2].
For `CC(=O)OC[C@H]1[C@@H](NC(=O)/C(=N\OC(C)(C)C(=O)O)c2csc(N)n2)C(=O)N1S(=O)(=O)O` (relative stereo) [Example No. 136C, cis-3-[2-(2-amino-4-thiazolyl)-2-(1-methyl-1-carboxyethyloxyimino)acetamido]-4-acetoxymethyl-2-oxoazetidine-1-sulfonic acid disodium salt (syn-isomer)], the MIC in [1] came to 1.56 µg/mL.
As for `CO/N=C(\C(=O)N[C@H]1C(=O)N(S(=O)(=O)O)[C@H]1COC(N)=O)c1csc(N)n1` (relative stereo) [Example No. 138C, sodium cis-3-[2-(2-amino-4-thiazolyl)-2-methoxyiminoacetamido]-4-carbamoyloxymethyl-2-oxoazetidine-1-sulfonate (syn-isomer)], in assay [1], the MIC is 6.25 µg/mL.
For the compound `CC(C)(O/N=C(\C(=O)N[C@H]1C(=O)N(S(=O)(=O)O)[C@@H]1C(N)=O)c1csc(N)n1)C(=O)O` (relative stereo) [Example No. 144C, trans-3-[2-(2-amino-4-thiazolyl)-2-(1-methyl-1-carboxyethyloxyimino)acetamido]-4-carbamoyl-2-oxoazetidine-1-sulfonic acid (syn-isomer)], the MIC in assay [1] amounted to 3.13 µg/mL (≈ 6.74 µM); in [2], 6.25 µg/mL (≈ 13.5 µM).
As for `CC(=O)NC[C@H]1[C@@H](NC(=O)/C(=N\OC(C)(C)C(=O)O)c2csc(N)n2)C(=O)N1S(=O)(=O)O` (relative stereo) [Example No. 147C, cis-3-[2-(2-amino-4-thiazolyl)-2-(1-methyl-1-carboxyethyloxyimino)acetamido]-4-acetamidomethyl-2-oxoazetidine-1-sulfonic acid (syn-isomer)], the MIC in [1] was determined as 0.39 µg/mL (≈ 0.792 µM); in assay [2], 3.13 µg/mL (≈ 6.36 µM).
Consider `COC(=O)C[C@@H]1[C@@H](NC(=O)/C(=N\OC(C)(C)C(=O)O)c2csc(N)n2)C(=O)N1S(=O)(=O)O` (relative stereo) [Example No. 158C, trans-3-[2-(2-amino-4-thiazolyl)-2-(1-methyl-1-carboxyethyloxyimino)acetamido]-4-methoxycarbonylmethyl-2-oxo-azetidine-1-sulfonic acid (syn-isomer)], for which the MIC was determined as 6.25 µg/mL (≈ 12.7 µM) in assay [1] and 3.13 µg/mL (≈ 6.34 µM) in assay [2].
Take `CCN1CCN(C(=O)N[C@@H](C(=O)NC2CN(S(=O)(=O)O)C2=O)c2ccccc2)C(=O)C1=O` (single isomer, unassigned) [Compound B, Sodium 3-[D(-)-N-(4-ethyl-2,3-dioxo-1-piperazinocarbonyl)-phenylglycinamido]-2-oxoazetidine-1-sulfonate]: the MIC in assay [3] was 0.2 µg/mL; in assay [4], > 100 µg/mL.
For the compound `CCN1CCN(C(=O)NC(C(=O)NC2CN(S(=O)(=O)O)C2=O)c2csc(N)n2)C(=O)C1=O` (stereo not drawn) [Compound D, Sodium 3-[2-(4-ethyl-2,3-dioxo-1-piperazinocarboxamido)-2-(2-amino-4-thiazolyl)-acetamido]-2-oxoazetidine-1-sulfonate], the MIC is 0.1 µg/mL in assay [3] and > 100 µg/mL in assay [4].
For the compound `CCCCCCCCN1CCN(C(=O)N[C@@H](C(=O)NC2CN(S(=O)(=O)O)C2=O)c2ccccc2)C(=O)C1=O` (stereo partly drawn) [Compound G, Sodium 3-[D-2-(4-n-octyl-2,3-dioxo-1-piperazinocarboxamido)-2-phenylacetamido]-2-oxoazetidine-1-sulfonate], the values for the MIC in assay [3] and in assay [4] were 0.78 µg/mL and > 100 µg/mL, respectively.
Turning to `CCCCCCCCN1CCN(C(=O)NC(C(=O)NC2CN(S(=O)(=O)O)C2=O)c2csc(N)n2)C(=O)C1=O` (stereo not drawn) [Compound H, Sodium 3-[2-(4-n-octyl-2,3-dioxo-1-piperazinocarboxamido)-2-(2-amino-4-thiazolyl)-acetamido]2-oxoazetidine-1-sulfonate], the MIC in assay [3] was 3.13 µg/mL; in assay [5], 3.13 µg/mL; in assay [6] it was 3.13 µg/mL; in assay [7] it was 3.13 µg/mL; in assay [4], > 100 µg/mL.
Turning to `O=C(NC1CN(S(=O)(=O)O)C1=O)[C@H](NC(=O)N1CCN(N=Cc2ccco2)C1=O)c1ccccc1` (stereo partly drawn) [Compound I, Sodium 3-[D-2-[(2-oxo-3-furfurylideneaminoimidazolidin-1-yl)-carboxamido]-2-phenylacetamido]-2-oxoazetidine-1-sulfonate], the MIC in assay [3] is 3.13 µg/mL; in assay [5] it was 3.13 µg/mL; in assay [8], 3.13 µg/mL; in [9], 3.13 µg/mL; in assay [4], > 100 µg/mL.
`O=C(NC1CN(S(=O)(=O)O)C1=O)[C@H](NC(=O)N1CCN(N=Cc2cccs2)C1=O)c1ccccc1` (stereo partly drawn) [Compound K, Sodium 3-[D-2-[[2-oxo-3-(thiophen-2-aldoimino)-imidazolidin-1-yl]-carboxamido]-2-phenylacetamido]-2-oxoazetidine-1-sulfonate]: the values for the MIC in assay [3] and in assay [4] were 0.39 µg/mL and > 100 µg/mL, respectively.
